This is an account of results in patent US20090270435A1 (priority 2006, published 2009).

Where a name gives a salt, the structure may show the parent alone.

The first test concerns the target T1, ACC1 from rat liver (Rattus norvegicus, UniProt P11497).
T1 construct: The livers (for ACC1 preparation) or skeletal muscle tissue (for ACC2 preparation) are removed; from tissue; host or cells: liver of male CD rats (fasted, then fed a high sucrose diet)
Briefly: Direct inhibition of ACC1 activity (14C-bicarbonate incorporation). The following applies: ACC1 from rat liver. Format: biochemical. The protocol:
[1] Preparation of ACC1 and ACC2.
Male CD rats weighing 150-200 g are fasted for 2 days and then fed a high sucrose diet (AIN-76A rodent diet; Cat # D10001, Research Diets Inc., New Brunswick, N.J.), for 3 days at which time they are sacrificed by CO2 asphyxiation. The livers (for ACC1 preparation) or skeletal muscle tissue (for ACC2 preparation) are removed, rinsed in ice-cold phosphate-buffered saline (PBS), and homogenized in 5 volumes of homogenization buffer (50 mM potassium phosphate, pH 7.5, 10 mM EDTA, 10 mM 2-mercaptoethanol, 2 mM benzamidine, 0.2 mM phenylmethylsulfonylfluoride (PMSF), 5 mg/L each leupeptin, aprotinin, and antitrypsin) in a Waring® blender for 1 minute at 4° C. All subsequent operations are carried out at 4° C. The homogenate is made 3% with respect to polyethylene glycol (PEG) by the addition of 50% PEG solution and centrifuged at 20,000×g for 15 minutes. The resulting supernatant is adjusted to 5% PEG with the addition of 50% PEG solution and stirred for 5 minutes. The pellet (contains ACC activity) is collected by centrifugation at 20,000×g for 20 minutes, rinsed with Ice-cold doubly distilled water to remove excess PEG and re-suspended in one-fourth the original homogenate volume with homogenization buffer. Ammonium sulfate (200 g/liter) is slowly added with stirring. After 45 minutes the enzyme is collected by centrifugation for 30 minutes at 20,000×g, re-suspended in 10 ml of 50 mM HEPES, pH7.5, 0.1 mM DTT, 1.0 mM EDTA, and 10% glycerol and desalted on a Sephadex™ G-25 column (2.5 cm-x 50 cm) (Pharmacia, Piscataway N.J. now GE Healthcare) […] equilibrated with the same buffer. The desalted enzyme preparation is stored in aliquots at −70° C. Immediately prior to use, frozen ACC1 or ACC2 aliquots are thawed, diluted to 500 μg/ml in buffer containing 50 mM HEPES, pH7.5, 1.0 mM MgCl2, 10 mM tripotassium citrate, 2.0 mM dithiothreitol (DTT), and 0.75 mg/ml fatty acid-free bovine serum albumin (BSA) and pre-incubated at 37° C. for 30 minutes.
[2] Measurement of ACC inhibition. The procedures for measuring ACC1 inhibition and ACC2 inhibition are identical except for the source of the isozyme. For measurement of ACC activity and assessment of ACC inhibition, test compounds are dissolved in dimethylsulfoxide (DMSO) and 1 μL aliquots are placed in 0.5 ml polypropylene tubes. Control tubes contain 1 μL of DMSO alone. Tubes are incubated at 37° C. in a constant temperature water bath. […] The reaction is then initiated by the addition of 10 μL of preincubated ACC fraction prepared as described above. After 7 minutes the reaction is terminated by the addition of 50 μL of 6N HCl and a 150 μL aliquot of the reaction mixture is transferred to glass scintillation vials and evaporated to dryness at 90° C. for at least 1 hour. The dried vials are then cooled, 0.5 ml of water and 5.5 ml of Ready Safe liquid scintillation fluid (Beckman Coulter Inc., Fullerton, Calif.) are added, and the radioactivity is determined using a liquid scintillation counter. Tubes that received HCl before ACC served as blanks.
In turn, `Cc1cc2c(cc1Cl)C(=O)CC1(CCN(C(=O)c3ccc4c(C)n[nH]c4c3)CC1)O2` [Ex. F3, 6-chloro-7-methyl-1′-[(3-methyl-1H-indazol-6-yl)carbonyl]spiro[chromene-2,4′-piperidin]-4(3H)-one] had an IC50 of 107 nM.
On the same count and under the same terms, the same measure for `CCc1cc(C(=O)N2CCC3(CC2)CC(=O)c2c(OC)cc(C)cc2O3)cc2cn[nH]c12` [Ex. C3, 1′-[(7-ethyl-1H-indazol-5-yl)carbonyl]-5-methoxy-7-methylspiro[chromene-2,4′-piperidin]-4(3H)-one]: 29.5 nM; for `COc1cccc2c1C(=O)CC1(CCN(C(=O)c3cccc4cn[nH]c34)CC1)O2` [Ex. H16]: 1620 nM.
The same measure, in the same setting: next, `Cc1cc2c(cc1Br)C(=O)CC1(CCN(C(=O)c3cc(C)c4[nH]ncc4c3)CC1)O2` [Ex. A8, 6-bromo-7-methyl-1′-[(7-methyl-1H-indazol-5-yl)carbonyl]spiro[chromene-2,4′-piperidin]-4(3H)-one]: 32.6 nM.
The same measure, in the same setting: the same measure for `Cc1cc2c(cc1C)C(=O)CC1(CCN(C(=O)c3ccc4nc[nH]c4c3)CC1)O2` [Ex. L22, 1′-(1H-benzimidazol-5-ylcarbonyl)-6,7-dimethylspiro[chromene-2,4′-piperidin]-4(3H)-one trifluoroacetic acid salt]: 164 nM.
With `Cc1cc2c(cc1C)C(=O)CC1(CCN(C(=O)c3cccc4c3ccn4C)CC1)O2` [Ex. L15, 6,7-dimethyl-1′-[(1-methyl-1H-indol-4-yl)carbonyl]spiro[chromene-2,4′-piperidin]-4(3H)-one], the midpoint of inhibition, the IC50, lay at 415 nM.
The same measure, in the same setting: the same measure for `O=C1CC2(CCN(C(=O)c3cccc4cn[nH]c34)CC2)Oc2ccccc21`: 3540 nM.
`Cc1cc2c(cc1Cl)C(=O)CC1(CCN(C(=O)c3ccc4ocnc4c3)CC1)O2` [Ex. L46, 1′-(1,3-benzoxazol-5-ylcarbonyl)-6-chloro-7-methylspiro[chromene-2,4′-piperidin]-4(3H)-one]: the IC50 came to 369 nM.
Still for that read-out and setting: the same measure for `COc1ccc2c(c1F)C(=O)CC1(CCN(C(=O)c3cccc4cn[nH]c34)CC1)O2` [Ex. H6, 5-fluoro-1′-(1H-indazol-7-ylcarbonyl)-6-methoxyspiro[chromene-2,4′-piperidin]-4(3H)-one]: 381 nM; for `Cc1cc(C(=O)N2CCC3(CC2)CC(=O)c2cc(C(C)C)ccc2O3)cc2cn[nH]c12` [Ex. A23, 6-isopropyl-1′-[(7-methyl-1H-indazol-5-yl)carbonyl]spiro[chromene-2,4′-piperidin]-4(3H)-one]: 109 nM.
Same read-out and setting: next, `Cc1cc(C(=O)N2CCC3(CC2)CC(=O)c2cc(C(=O)N(C)C)ccc2O3)cc2cn[nH]c12` [Ex. A27, N,N-dimethyl-1′-[(7-methyl-1H-indazol-5-yl)carbonyl]-4-oxo-3,4-dihydrospiro[chromene-2,4′-piperidine]-6-carboxamide]: 125 nM; `COC(=O)c1ccc2c(c1)C(=O)CC1(CCN(C(=O)c3ccc4c(C)n[nH]c4c3)CC1)O2` [Ex. F4, methyl 1′-[(3-methyl-1H-indazol-6-yl)carbonyl]-4-oxo-3,4-dihydrospiro[chromene-2,4′-piperidine]-6-carboxylate]: 126 nM; `Cc1cc2c(cc1C)C(=O)CC1(CCN(C(=O)c3ccc4c(cnn4C)c3)CC1)O2` [Ex. D1, 6,7-dimethyl-1′-[(1-methyl-1H-indazol-5-yl)carbonyl]spiro[chromene-2,4′-piperidin]-4(3H)-one]: 57.9 nM.
Still for that read-out and setting: next, `Cc1nc2cc(C(=O)N3CCC4(CC3)CC(=O)c3cc(C)c(C)cc3O4)ccc2[nH]1` [Ex. L24, 6,7-dimethyl-1′-[(2-methyl-1H-benzimidazol-5-yl)carbonyl]spiro[chromene-2,4′-piperidin]-4(3H)-one trifluoroacetic acid salt]: 825 nM; `Cc1cc2c(cc1C)C(=O)CC1(CCN(C(=O)c3ccc4nc[nH]c4c3)CC1)O2` [Ex. L33, 1′-(1H-benzimidazol-6-ylcarbonyl)-6,7-dimethylspiro[chromene-2,4′-piperidin]-4(3H)-one]: 99.9 nM.
`Cc1cc2c(cc1C)C(=O)CC1(CCN(C(=O)c3ccc4c(C)nn(C)c4c3)CC1)O2` [Ex. G3, 1′-[(1,3-dimethyl-1H-indazol-6-yl)carbonyl]-6,7-dimethylspiro[chromene-2,4′-piperidin]-4(3H)-one] displayed an IC50 of 75.4 nM. The IC50 values of the last two compounds are within 1.5-fold of each other.
The same measure, in the same setting: the same measure for `Cc1cc(C(=O)N2CCC3(CC2)CC(=O)c2cc(Cl)c(Cl)cc2O3)cc2cn[nH]c12` [Ex. A14, 6,7-dichloro-1′-[(7-methyl-1H-indazol-5-yl)carbonyl]spiro[chromene-2,4′-piperidin]-4(3H)-one]: 52 nM; for `Cc1ccc2c(c1)C(=O)CC1(CCN(C(=O)c3cc(C)c4[nH]ncc4c3)CC1)O2` [Ex. A15, 6-methyl-1′-[(7-methyl-1H-indazol-5-yl)carbonyl]spiro[chromene-2,4′-piperidin]-4(3H)-one]: 53.6 nM; for `Cc1[nH]c2ccc(C(=O)N3CCC4(CC3)CC(=O)c3cc(Cl)ccc3O4)cc2c1C` [Ex. L12, 6-chloro-1′-[(2,3-dimethyl-1H-indol-5-yl)carbonyl]spiro[chromene-2,4′-piperidin]-4(3H)-one]: under 1000 nM.

The same test, now with this note: Table of Examples M1-M36.
Compound `COc1ccc2c(c1F)C(=O)CC1(CCN(C(=O)c3cccc(-c4cc[nH]n4)c3)CC1)O2` [Ex. M14, 5-fluoro-6-methoxy-1′-[3-(1H-pyrazol-3-yl)benzoyl]spiro[chromene-2,4′-piperidin]-4(3H)-one] gave an IC50 of 223 nM.
On the same count and under the same terms, next, `O=C1CC2(CCN(C(=O)c3cccc(-c4cc[nH]n4)c3)CC2)Oc2ccc(Cl)cc21` [Ex. M30, 6-Chloro-1′-[3-(1H-pyrazol-3-yl)benzoyl]spiro[chromene-2,4′-piperidin]-4(3H)-one]: 613 nM; `O=C1CC2(CCN(C(=O)c3cccc(-c4cc[nH]n4)c3)CC2)Oc2cc(F)ccc21` [Ex. M34, 7-Fluoro-1′-[3-(1H-pyrazol-3-yl)benzoyl]spiro[chromene-2,4′-piperidin]-4(3H)-one]: 817 nM.
On the same count and under the same terms, the same measure for `CC(C)NC(=O)c1ccc2c(c1)C(=O)CC1(CCN(C(=O)c3cccc(-c4cc[nH]n4)c3)CC1)O2` [Ex. M17, N-isopropyl-4-oxo-1′-[3-(1H-pyrazol-3-yl)benzoyl]3,4-dihydrospiro[chromene-2,4′-piperidine]-6-carboxamide]: 350 nM.

Still in this test, the particulars now being: Table of Examples O1-O4.
`O=C1CC2(CCN(C(=O)c3cccc(-c4ccn[nH]4)c3)CC2)Oc2ccccc21` [Ex. O1, 1′-[3-(1H-pyrazol-5-yl)benzoyl]spiro[chromene-2,4′-piperidin]-4(3H)-one] showed an IC50 of 916 nM.

The same test, now with this note: Table of Examples P1-P15.
`CCOc1ccc(-c2cc[nH]n2)cc1C(=O)N1CCC2(CC1)CC(=O)c1cc(C)c(C)cc1O2` [Ex. P7, 1′-[2-ethoxy-5-(1H-pyrazol-3-yl)benzoyl]-6,7-dimethylspiro[chromene-2,4′-piperidin]-4(3H)-one trifluoroacetic acid salt] displayed an IC50 of under 3000 nM.
The same measure, in the same setting: the same measure for `Cc1cc2c(cc1C)C(=O)CC1(CCN(C(=O)c3cccc(-c4cc(C(F)(F)F)[nH]n4)c3)CC1)O2` [Ex. P1, 6,7-dimethyl-1′-{3-[5-(trifluoromethyl)-1H-pyrazol-3-yl]benzoyl}spiro-[chromene-2,4′-piperidin]-4(3H)-one]: 215 nM.
On the same count and under the same terms, the same measure for `CCOc1ccc(-c2cc[nH]n2)cc1C(=O)N1CCC2(CC1)CC(=O)c1cc(C)c(C)cc1O2` [Ex. P8, 1′-[2-ethoxy-5-(1H-pyrazol-3-yl)benzoyl]-6,7-dimethylspiro[chromene-2,4′-piperidin]-4(3H)-one]: 621 nM; for `Cc1cc2c(cc1C)C(=O)CC1(CCN(C(=O)c3cc(-c4cc[nH]n4)ccc3F)CC1)O2` [Ex. P4, 1′-[2-fluoro-5-(1H-pyrazol-3-yl)benzoyl]-6,7-dimethylspiro[chromene-2,4′-piperidin]-4(3H)-one trifluoroacetic acid salt]: under 3000 nM.
